According to patent publication US4230692A, “Ravidomycin and process of preparation” (Ayerst McKenna & Harrison, Inc., priority 1978, dated 1980):

How the values were obtained:
[1] = tested on: Streptomyces ravidus NRRL 11,300; assay: Streptomycin resistance of the producing organism; details: 10 μg streptomycin per ml
colon 38 tumor = assay: Colon 38 tumor weight in mice; assay type: in vivo; details: dose level 25 mg/kg; evaluated on 20th day of implantation in mice
Procedure: (j) Ravidomycin causes 50% reduction in colon 38 tumor weight at dose level of 25 mg/kg. evaluated on 20th day of implantation in mice.

[2] = Solubility in organic solvents
[3] = Acute intraperitoneal LD50 in mice; details: mouse, in vivo, ip, LD50, acute, per body weight
mice = assay: Acute intraperitoneal LD50 in mice; details: acute, i.p., per body weight

| Compound | resistance of Streptomyces ravidus to streptomycin [1] | resistance of Streptomyces ravidus to streptomycin ([1]; listed as Streptomycin) | reduction in colon 38 tumor weight (colon 38 tumor) [%] | solubility ([2]; in acetone, methanol, ethanol, chloroform) | solubility ([2]; in diethyl ether) | LD50 [3] [mg/kg] | LD50 (mice) | LD50 (mice; listed as Ravidomycin) [mg/kg] |
| --- | --- | --- | --- | --- | --- | --- | --- | --- |
| [H]/N=C(/N)N[C@H]1[C@H](O)[C@@H](O)[C@H](O[C@@H]2O[C@@H](C)[C@](O)(C=O)[C@H]2O[C@@H]2O[C@@H](CO)[C@H](O)[C@@H](O)[C@@H]2NC)[C@@H](N/C(N)=N\[H])[C@@H]1O [streptomycin] | resistant | Resistant |  |  |  |  |  |  |
| C=Cc1cc(OC)c2c(c1)c(=O)oc1c2cc(OC)c2c(O)ccc(C3OC(C)C(OC(C)=O)C(N(C)C)C3O)c21 (centres unmarked) [ravidomycin] |  |  | 50 | soluble | sparingly soluble | > 400 | greater than 400 mg/kg | 400 |
